According to US10426815B2, “Prevention and treatment of itch with an MRGPR antagonist” (THE GENERAL HOSPITAL CORPORATION, priority 2015, dated 2019):
“Also recorded” adds a separate entry of the source. Blank lines part the entries; values can stand above or below the substance they belong to.

Columns and labels:
[1] = tested on: dorsal root ganglion neurons from NK1 mice; experiment: DRG culture and calcium imaging, NK1 knockout mice; assay type: cell-based, mouse
Description: (§1) Cervical to lumbar dorsal root ganglia (DRG) from C57/B6 or NK1 mice (1 month old) were dissected and maintained in DMEM (GIBCO, Langley, Okla., USA), containing […] L-glutamine (FISHER […], Pittsburgh, Pa., USA), 10% heat inactivated fetal bovine serum (GIBCO, Langley, Okla., USA), 5000 U/ml penicillin and 5000 μg/ml streptomycin (FISHER […], Pittsburgh, Pa., USA). Enzymatic digestion was carried out with 1 mg collagenase in 1 ml dispase (ROCHE Applied Sciences, IN, USA), at 37° C. for 70 min. The collagenase/dispase solution was removed, and DRGs were washed and suspended in DMEM containing 125 U DNAse (SIGMA, St Louis, USA) within which the ganglia were mechanically triturated using fire-polished glass pipettes. […] Cells were evaluated using a NIKON Eclipse Ti inverted microscope equipped with an Exi Aqua CCD camera (QIMAGING, British Columbia, Canada). Ca^2+ flux fluorescence was measured as an […] ratio at 340 nm and 380 nm (F340/380) (Lambda DG4, Sutter Instruments, Novato, Calif., US). The 340/380 ratiometric images were analyzed using NIKON Elements AR Software (NIKON, Melville, N.Y. USA). […]

WT DRGs = experiment: DRG culture and calcium imaging, WT mice; assay type: cell-based, mouse
Description: as §1

MrgX1 (human MRGPRX1) = target: T1, MrgX1 (human MRGPRX1) (Homo sapiens, UniProt Q96LB2); experiment: Calcium imaging of cells transfected with the GPCR (Table 1); assay type: cell-based
T1 construct: expressed in transfected cells; host or cells: HeLa cells, pcDNA3.1(-)
Description: Human NK1 cDNA was obtained from LIFE Technologies, PCR cloned with Xho I-Hind III ends and cloned into pcDNA3.1(−). Mouse NK2 and NK3 expression-ready vectors were obtained from […] (Piscataway, N.J.). All other Mrgprs (human MRGPRX1, human MRGPRX2, human MRGPRX3, human MRGPRX4, mouse MrgprA2a, mouse MrgprA2b, mouse MrgprA3, mouse MrgprA4, mouse MrgprA9, mouse MrgprA10, mouse MrgprB4 and mouse MrgprB5) were cloned by PCR from genomic DNAs and inserted into pcDNA3.1 (−).
10 μg of expression vector (human MRGPRX2, mouse MrgprA1 or NK1) and 10 μl of LIPOFECTAMINE 2000 transfection reagent were diluted into 0.5 ml of DMEM and separately left at room temperature (RT) for 5 min. They were then mixed and incubated at RT for 20 minutes prior to being added to HeLa cells. HeLa cells were grown to confluence, trypsinized and 1×10^6 cells were pelleted in a 15 ml tube by centrifugation at 1000 rpm for 5 minutes. The DMEM-LIPOFECTAMINE 2000-DNA mixture (1 ml) was then added to the cell pellet, suspended and incubated at RT for 5 minutes. 2 ml of complete DMEM with 10% FBS without antibiotics were added to the tube, mixed by inverting the tube, plated into a 96-well glass bottom plate at 50,000 cells/well, and placed in a 37° C. CO2 incubator for 3 hours. HeLa cells transfected with salmon sperm DNA were plated as a control. The medium was changed after 3 hours and left in the incubator. 24 hours after transfection, the medium in the wells was removed and 100 μl of complete DMEM containing 2 μM of FURA-2 were added to each well and left at room temperature in the dark for 1 hr.
Calcium imaging was performed immediately after loading cells with Fura-2, using a ZEISS Axiovert 200M microscope platform equipped with a flipping filter wheel for ratiometric imaging. Axiovision software, version 4.6 was used for calcium image analysis of the cells excited at 340 nm and 380 nm. Agonists were added at 15 seconds after the start of the excitation procedure. Antagonists were added five minutes before imaging with the agonists. Images were taken every 5 seconds, including at zero time, during a 90 second period or longer if required. The software later analyzed all images taken during each excitation period. Ratiometric changes were measured in 10-20 cells in each individual experiment. An average of the fluorescence of the cells in each image was calculated and plotted against time in seconds.

MrgC11 (mouse MrgprC11) = target: T2, MrgC11 (mouse MrgprC11) (Mus musculus, UniProt Q8CIP3); experiment: as above; assay type: cell-based; conditions: capsaicin 3 μM
T2 construct: expressed in transfected cells; host or cells: HeLa cells
T2 sequence (Q8CIP3 1-322): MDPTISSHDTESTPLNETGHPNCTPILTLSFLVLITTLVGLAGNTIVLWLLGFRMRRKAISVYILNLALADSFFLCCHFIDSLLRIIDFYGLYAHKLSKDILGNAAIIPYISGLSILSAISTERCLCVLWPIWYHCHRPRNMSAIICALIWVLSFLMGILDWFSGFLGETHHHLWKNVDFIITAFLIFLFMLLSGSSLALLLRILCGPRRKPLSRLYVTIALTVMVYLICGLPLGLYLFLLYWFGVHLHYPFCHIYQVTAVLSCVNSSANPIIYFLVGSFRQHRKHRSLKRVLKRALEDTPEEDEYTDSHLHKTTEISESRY

T1 sequence (Q96LB2 whole entry): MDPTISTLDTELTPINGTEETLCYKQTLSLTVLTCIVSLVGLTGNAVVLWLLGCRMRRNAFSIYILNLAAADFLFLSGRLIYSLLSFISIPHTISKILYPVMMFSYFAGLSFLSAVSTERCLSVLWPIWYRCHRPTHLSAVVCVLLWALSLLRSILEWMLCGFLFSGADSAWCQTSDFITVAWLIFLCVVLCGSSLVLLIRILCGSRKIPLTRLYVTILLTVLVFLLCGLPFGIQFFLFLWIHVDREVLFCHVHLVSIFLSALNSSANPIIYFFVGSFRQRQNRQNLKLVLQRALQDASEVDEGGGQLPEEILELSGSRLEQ

Substance: Boc-Gln-D-Trp(Formyl)-Phe benzyl ester trifluoroacetate [QWF]
inhibition of SP-induced activation of NK1 knockout DRG neurons ([1]; QWF 1 μM): significantly diminished; also recorded: blocked; also recorded: inhibits; also recorded: significantly decreases | decrease of the response of WT DRGs to compound 48/80 (WT DRGs): significantly decreases | inhibition of human MRGPRX1 activation by chloroquine (CQ) (MrgX1 (human MRGPRX1); FIG. 7c: CQ 100 μM, QWF 100 μM): does not affect; also recorded: does not inhibit

activation of mouse MrgprC11 by the substance (in words) (MrgC11 (mouse MrgprC11)): activates
Substance: SLIGRL: tethered hexapeptide ligand of mouse PAR2 (SEQ ID NO: 7)

activation of human MRGPRX1 by the substance (in words) (MrgX1 (human MRGPRX1); SP 10 μM (FIG. 9), chloroquine 100 μM (FIG. 7c)): does not activate
Substance: SP: inflammatory undecapeptide neuropeptide of the tachykinin family, synthesized by GenScript
activation of NK1 knockout DRG neurons by SP ([1]; cultured DRGs, calcium imaging): activated
